# In patent US5049372A, “Anticancer activities in a host by increasing blood and plasma adenosine 5'-triphosphate (ATP) levels” (priority 1988, dated 1991):
# Where two headings read alike, the source gives them in different places.
# Key:
# [1] = system: CT26 colon adenocarcinoma; assay: Growth inhibition of footpad CT26 colon adenocarcinoma in CB6F1 mice, second series (FIGS. 2 and 3); assay type: in vivo, mouse; details: for Anticancer activities against established footpad CT26 colon adenocarcinoma: CB6F1 mice, in words; for Inhibition of growth of palpable CT26 tumors (in words): daily i.p. in 2.2 ml saline, pH 6.2, 12 days, starting after tumors palpable, equimolar amounts
# Experimental: (§1) A further series of tests are conducted whereby tumors are inoculated by injections of 2.5×10^5 CT26 cells (over 90% viability) in 50 μl of phosphate-buffered saline into the right hind footpad of CB6F1 mice. The treatments were initiated at a variety of times after inoculation of the tumors. The injection schedules started either 1 or 5 days after tumor inoculation when none of the tumors are palpable or when the tumors are clearly palpable (average calculated weight of 100 mg), which occur in 100% of the inoculated mice after 8-11 days. Mice are randomized, divided into groups, and injected daily with 2.2 ml of saline, adenosine, AMP, or ATP (compounds are in sterile saline solutions at concentrations of 25 mM with AMP and ATP solutions adjusted to pH 6.2). Injections are administered intraperitoneally with 30 gauge needles and the mice are lightly anesthetized with […]. The mice are weighed and tumor sizes measured before the start of the treatment schedule and every three days during and after the treatment schedule. These determinations are performed before injections during the treatment period.
# (§2) In particular, see FIG. 2. FIG. 2 illustrates inhibition of tumor growth (---) and host weight loss (-) in tumor-bearing mice by treatment with adenine nucleotides. Mice (CB6F1, 8 week old males) bearing palpable CT26 footpad tumors (on day 9 after tumor inoculation) are treated with saline (.smallcircle.), adenosine (o), AMP (Δ), or ATP (.quadrature.) as described herein. An untreated group is also included (x). Arrows indicate days of injection.
# The magnitude of the antitumor activities of AMP and ATP depends to a small extent on the pH of the solution administered intraperitoneally. This property is probably related to the number of negative charges on the phosphate groups (the pKa of the secondary phosphate is around 6.6). AMP and especially ATP have some buffering capacity, and at a pH below 6.6 they carry a smaller net charge than at a physiological pH. The lower charge of these molecules enhances the initial (first hour) transport of AMP and ATP across the peritoneal membrane and into the systemic circulation (see Torres, et al., 1978, Pharmacol., 17, 330-340). […] The treatment schedule of palpable CT26 tumors which is illustrated in FIG. 2 consistently yields 10-20% of "cures". These mice remain tumor-free for at least two months.
# FIG. 3 further illustrates inhibition of host weight loss in tumor-bearing animals by treatment with adenine nucleotides. Mice (CB6F1, males, 7 weeks old, in A, 10 weeks old in B, […]) with saline (.smallcircle.), adenosine (o), AMP (Δ), or ATP (.quadrature.) are initiated 1 day (A), 5 days (B), or 9 days after tumor inoculation (when all the tumors were palpable) (C). Arrows indicate days of injection. Experimental procedures were outlined in the text.
# RBC ATP pools [2] = assay: Expansion of RBC ATP pools and blood plasma ATP levels after i.p. injection (Table 4); assay type: in vivo, mouse
# Experimental: (§3) The mice are anesthetized with ether during the procedure. Plasma or Hanks' (Balanced Salt Solution) BSS media from incubated isolated RBCs (Red Blood Cells) are prepared by centrifugation of whole blood or RBCs in a Beckman microfuge (30 seconds at 8000 xg) and samples of 100 μl are added to 1 ml of ice-cold 7% trichloroacetic acid. Red blood cells are prepared by centrifugation of whole blood (1500 xg for 5 minutes at 4° C.) and removal of plasma and the buffy coat is followed by a wash of the pelleted RBCs (from 250 μl of whole blood) in 5 ml of ice-cold Hanks' BSS. After centrifugations, the RBCs pellet is resuspended in Hanks' BSS to yield a total volume with the original hematocrit (percent of RBCs volume in the whole blood). Aliquots of 20 μl of RBCs suspensions or whole blood are added to 1 ml of ice-cold 7% trichloroacetic acid. Extraction of acid-soluble nucleotides and determinations of ATP levels by luminometry followed procedures discussed hereinabove. Levels of [^3 H]ATP in whole blood, RBCs, plasma, or RBCs incubation media (Hanks' BSS) are determined after incorporation of 250 μCi of [^3 H]adenosine of specific radioactivity of 30 Ci/mmol (1 Ci=3.7×10^10 becquerels) into whole blood or RBC suspensions (250 μl total) followed by immediate trichloroacetic acid extractions as described above. Two dimensional thin layer chromatography on poly(ethylene)imine cellulose with an unlabeled ATP carrier is performed according to Bochner and Ames, J. Biol. Chem., 257, pp. 9759-9769, 1982). For the determination of whole blood or isolated RBC [^3 H]ATP pools, 10 μl of a 1 ml initial trichloroacetic acid extract are chromatographed. Determinations of [^3 H]ATP levels in blood plasma or RBCs incubation media are performed on 300 μl of an initial 1 ml trichloroacetic acid extract which are lyophilized and redissolved in 15 μl of water. After chromatography, the spots corresponding to the ATP carrier are cut, eluted with 0.5 ml of 4 N ammonium hydroxide, and radioactivity determined in 10 ml of scintillation fluid.
# Single intraperitoneal injections of 2 ml of 35 mM of AMP or ATP in saline at pH 6.2 into CB6F1 mice result in expansions of RBC ATP pools in these mice (see Table 4).
# The expansions of RBC ATP pools after i.p. injections of AMP or ATP could be detected 30 minutes after injections and lasted for approximately 6-8 hours after the nucleotides were completely adsorbed across the peritoneal membrane and into the systemic circulation. The rates of adsorption of intraperitoneal AMP or ATP solutions varied in different strains of mice. […] These plasma ATP levels originate in RBCs since they can be metabolically labeled by [^3 H]adenosine. Plasma ATP pools which originate in the dense granules of blood platelets would not be radioactively labeled under the same conditions (e.g., Holmsen, 1985, Seminars in Hematol, 22, 219-240). The experiments described in Tables 4 and 5 include uptake of [^3 H]adenosine by whole blood (Table 4) or isolated washed RBCs (Table 5 below). In both cases, all the extracellular ATP, determined seconds after the uptake of [^3 H]adenosine, is metabolically labeled.
# RBC ATP pools [3] = assay: Stability of expanded RBC ATP pools in washed isolated RBCs in vitro after i.p. injection (Table 5); design: species or system mouse; details: average of two experiments
# Experimental: as §3
# Two hour incubations of washed isolated RBCs containing normal or expanded ATP pools in Hanks' BSS result in relatively small decreases in RBC ATP pools with the expanded pools being maintained well above normal levels (Table 5). The expansions of RBC ATP pools after i.p. administration of AMP or ATP in vivo is presumably the result of their dephosphorylation followed by the RBCs uptake of the adenosine which is generated in situ.
# RBC ATP pools [4] = assay: RBC ATP pools after in vitro incubation of whole mouse blood with 1 mM compound (Table 6); assay type: cell-based; details: 1 mM compound, 30 min, bioluminometry
# Experimental: ^+ RBC ATP pools were determined in isolated washed RBCs after
# incubations of whole blood with 1 mM of the specified compound by
# bioluminometry. Data represent means ± S.D. of three separate
# [5] = Inhibition of host weight loss (cancer cachexia) in CT26 tumor-bearing mice; assay type: in vivo, mouse
# Experimental: as §1, §2
# FIG. 3 further illustrates inhibition of host weight loss in tumor-bearing animals by treatment with adenine nucleotides. Mice (CB6F1, males, 7 weeks old, in A, 10 weeks old in B, C) are inoculated with CT26 tumors and daily treatments (for 10 consecutive days) with saline (.smallcircle.), adenosine (o), AMP (Δ), or ATP (.quadrature.) are initiated 1 day (A), 5 days (B), or 9 days after tumor inoculation (when all the tumors were palpable) (C). Arrows indicate days of injection. Experimental procedures were outlined in the text.
# CT26 tumors = assay: Growth inhibition of s.c. footpad CT26 tumors in CB6F1 mice by daily i.p. adenine nucleotides (Table 1); assay type: in vivo, mouse; details: for inhibition at 25000 µM: Mus musculus, CT26, 360 h, 1 ml of 25 mM, based on tumor weights
# Experimental: The tumor cell lines employed were CT26, a mouse undifferentiated, aggressive colon carcinoma, and CAPAN-1, a well-differentiated human pancreatic adenocarcinoma. […] The cells are shown to be free of Mycoplasma contamination. Cells are cultured at 37° C. in a humidified atmosphere of 5% CO2 /95% air in MEM supplemented with antibiotics (100 units of penicillin per ml and 100 μg streptomycin per ml), L-glutamine (2 mM), non-essential amino acids (0.1 mM), sodium pyruvate (1 mM), and 10% fetal bovine serum.
# In the tests, females and males CB6F1 mice (a standard F1 hybrid of BALB/C and C57BL/6) obtained from Jackson Laboratories, Bar Harbor, Maine and athymic outbred NCr nu/nu mice (males and females) from the Department of Radiation Medicine, Massachusetts General Hospital, Boston, Mass. 02114 are used. All the mice are kept for at least two weeks before inoculation of the tumors and the start of treatment and are 7-9 weeks old (CB6F1) or 6-7 weeks old (athymic nu/nu) at the start of the procedure. Animals weigh 20-25 g (females) or 23-28 g (males), are housed 5-12 per cage, and have ad libitum access to food and water.
# Tumor cells are removed from subconfluent cultures by a mild trypsin-EDTA treatment, the cell pellet is washed once with MEM without serum and the cells are suspended at the desired cell numbers in PBS (phosphate-bufferedsaline, 8 g NaCl, 0.2 g KCl, 1.15 g Na2 HPO4.7H2 O, and 0.2 g KH2 PO4 per liter). Cell suspensions are shown to be at least 90% viable by trypan blue exclusion. Mice are injected subcutaneously in the right hind footpad with tumor cells suspended in 50 μl of PBS. The regular protocol (unless otherwise stated) consists of daily i.p. injections of 1 ml of 0.85% NaCl solution or 1 ml of 50 mM of AMP, ADP, or ATP in 0.85% NaCl (from stock solutions adjusted to pH 6.2) starting one day after tumor inoculation and given for ten consecutive days.
# Injections are administered with 30 gauge needles and the mice are lightly anesthetized with ether. The mice are weighed before the start of treatment and once a week during and after treatment. After the tumors become palpable, tumor sizes are determined every three days. The animals are sacrificed, tumors are excised and weighed before they reach 10% of the animals' weight.
# The growth inhibitory properties of adenine nucleotides against CT26 murine colon carcinoma, which are inoculated s.c. in the hind footpad of CB6F1 mice, are illustrated in Table 1 hereinbelow. […] No significant differences between males and females are observed either in the rate of tumor growth or in the tumor's response to adenine nucleotides treatment.
# [6] = 5 hours after i.p. injection of 2 ml of 35 mM, CB6F1, bioluminometry, citrate-dextrose
# [7] = experiment 6, 10 F per group, 0.5 × 10^5 cells, day 18, 1 ml of 50 mM i.p. daily (Ap4A 10 mM)
# [8] = experiment 1, 10 F per group, 0.5 × 10^6 cells, day 15, 1 ml of 25 mM i.p. daily
# [9] = experiment 2, 10 M per group, 0.5 × 10^6 cells, day 15, 1 ml of 25 mM i.p. daily
smiles,measurement,setting,value
"Nc1ncnc2c1ncn2[C@@H]1O[C@H](CO)[C@@H](O)[C@H]1O [Adenosine, adenosine]",Anticancer activities against established footpad CT26 colon adenocarcinoma,[1],without such effects
same,Deaths before stated day after tumor inoculation,"[1]; FIG. 2 experiment, palpable CT26 tumors, 10 animals per group",No deaths occurred before day 22
same,Inhibition of growth of palpable CT26 tumors (in words),[1],Much weaker anticancer activities
same,Plasma ATP levels,RBC ATP pools [2]; [6],1.12 ± 0.28 µM
same,RBC ATP pools,RBC ATP pools [2]; [6],1.10 ± 0.24 mM
same,Plasma [^3 ]ATP levels immediately after [^3 H]adenosine incorporation into whole blood,"RBC ATP pools [2]; 5 hours after i.p. injection of 2 ml of 35 mM, CB6F1, radioactivity corrected by RBC specific radioactivity",0.77 ± 0.30 µM
same,Expansion of RBC ATP pools (in words),"RBC ATP pools [2]; i.p. injection, host animals",only slightly effective in expanding mouse RBC ATP pools
same,"Medium (Hanks' BSS) [^3 H]ATP levels immediately after [^3 H]adenosine incorporation into isolated, washed RBCs (at time 0)",RBC ATP pools [3]; time 0,1.20 µM
same,ATP levels in the medium (Hanks' BSS),"RBC ATP pools [3]; time 0, bioluminometry",1.71 µM
same,"RBC ATP pools (37° C.), 0 min","RBC ATP pools [3]; washed RBCs in Hanks' BSS, 37° C., 0 min",0.69 mM
same,"RBC ATP pools (37° C.), 120 min","RBC ATP pools [3]; washed RBCs in Hanks' BSS, 37° C., 120 min",0.54 mM
same,RBC ATP pools (after 30 min incubations in heparinized mouse blood),RBC ATP pools [4],0.55 ± 0.17 µM
same,Deaths before stated day after tumor inoculation,"[5]; FIG. 3, treatment initiated day 1 (A), day 5 (B) or day 9 (C)","No deaths occurred before day 19 (A) or day 25 (B,C)"
same,"Effect on tumor growth and rate of weight loss, schedules ending before tumors become large","[5]; FIGS. 3A and 3B, treatment from day 1 or day 5",having only a small effect on either of the two phenomena
same,Inhibition of host weight loss (in words),"[5]; tumors of similar sizes, FIG. 2 data",inhibit weight loss
"Nc1ncnc2c1ncn2[C@@H]1O[C@H](COP(=O)(O)OP(=O)(O)OP(=O)(O)OP(=O)(O)OC[C@H]2O[C@@H](n3cnc4c(N)ncnc43)[C@H](O)[C@@H]2O)[C@@H](O)[C@H]1O [AP4 A, reference compound]",Tumor diameter,CT26 tumors; [7],0.9 ± 0.3 cm
same,Tumor weight,CT26 tumors; [7],0.74 ± 0.21 g
"O=P(O)(O)OP(=O)(O)O [inorganic pyrophosphate, reference compound]",Anticancer activities against established footpad CT26 colon adenocarcinoma,[1],without such effects
same,Inhibition of growth of palpable CT26 tumors (in words),[1],without any effects on the growth of CT26 tumors
Nc1ncnc2c1ncn2[C@@H]1O[C@H](COP(=O)(O)OP(=O)(O)OP(=O)(O)O)[C@@H](O)[C@H]1O [ATP-MgCl2],inhibition at 25000 µM,"CT26 tumors; read-out: Inhibition of tumor growth (% of saline-treated), experiment 1, 10 F per group, 0.5 × 10^6 cells, day 15",18%
same,inhibition at 25000 µM,"CT26 tumors; read-out: Inhibition of tumor growth (% of saline-treated), experiment 2, 10 M per group, 0.5 × 10^6 cells, day 15",26%
same,Tumor diameter,CT26 tumors; [8],1.4 ± 0.2 cm
same,Tumor weight,CT26 tumors; [8],1.59 ± 0.24 g
same,Tumor diameter,CT26 tumors; [9],1.4 ± 0.3 cm
same,Tumor weight,CT26 tumors; [9],1.38 ± 0.40 g
"O=P(O)(O)O [inorganic phosphate, reference compound]",Anticancer activities against established footpad CT26 colon adenocarcinoma,[1],without such effects
same,Inhibition of growth of palpable CT26 tumors (in words),[1],without any effects on the growth of CT26 tumors
